Experimental data as given in patent US11752141B2, “Pharmaceutical compositions and methods utilizing neostigmine and an NK-1 antagonist for treating myasthenia gravis” (priority 2017, dated 2023).

Test system: human subjects
Test: Phase I single-blind, placebo-controlled study of pyridostigmine bromide with or without aprepitant
Format: in vivo
Details: single oral dose of aprepitant (up to 125 mg) co-administered with first intolerable dose (FID) of oral pyridostigmine bromide; healthy volunteers; follow-up up to 8 hours
Protocol: The ability of the NK1-antagonists for preventing the adverse effects of pyridostigmine bromide in humans is tested.
A Phase I study is conducted in human subjects receiving a single oral dose of pyridostigmine bromide with or without a single oral dose of aprepitant, as a representative NK1-antagonist. The study was a single center, single-blind, placebo-controlled study.
To be enrolled in the study, participants are to meet the following inclusion/ex elusion criteria:
• 1. Male or female volunteers between the ages of 18 and 60 years inclusive are required to be in good health, to refrain from consuming xanthine, quinine and caffeine containing beverages, and to refrain from prolonged intensive physical exercise during the study conduct. • 2. […] Subjects had to be in good health according to their medical history including personal and family psychiatric history, physical examination, ECG, vital signs, and laboratory tests. […] Subjects had to be able to swallow multiple pills simultaneously. Key Exclusion Criteria • 1. Any clinically relevant acute or chronic disease which could interfere with the subjects' safety during the trial, expose them to undue risk, or interfere with the study objectives. • 2. History or presence of gastrointestinal, hepatic, or renal disease or other condition known to interfere with the absorption, distribution, metabolism or excretion of drugs. • 3. […]

C[C@@H](O[C@H]1OCCN(Cc2nc(=O)[nH][nH]2)[C@H]1c1ccc(F)cc1)c1cc(C(F)(F)F)cc(C(F)(F)F)c1 [aprepitant, 5-[[(2R,3S)-2-[(1R)-1-[3,5-bis(trifluoromethyl)phenyl]ethoxy]-3-(4-fluorophenyl)-4-morpholinyl]methyl]-1,2-dihydro-3H-1,2,4-triazol-3-one]
occurrence of gastro-intestinal AEs with pyridostigmine: prevents or attenuates
